# Values quoted from earlier work as cited in US9636305B2, “Antiemetic extended release solid dosage forms” (RedHill Biopharma Ltd., priority 2013, dated 2017).
# Conditions: scale of Pliska et al., J. Chromatog. 216, 79, 1981
row,SMILES,hydropathy value
1,N[C@@H](CC(=O)O)C(=O)O [aspartic acid],−2.15
2,NCC(=O)O [glycine],0
3,CC[C@H](C)[C@H](N)C(=O)O [iso-leucine],1.83
